The text below walks through data of patent US9833455B2, “Preparation and methods of use for ortho-aryl 5-membered heteroaryl-carboxamide containing multi-targeted kinase inhibitors” (Spacefill Enterprises LLC, priority 2011, dated 2017).

Like-named read-outs stand apart in the source and are kept apart here. A value given as a limit tells only on which side of the number the result lay.

What all share (format): biochemical
One assay concerns the target TRKB (Homo sapiens, UniProt Q16620). As to the kind of experiment: Nanosyn kinase profiling, % inhibition. The conditions noted are these: panel of 230 kinases. The procedure:
(§1) “Inhibiting kinase activity” means to decrease the production of an phosphor-peptide by a particular kinase that can be separated by analytical techniques. For example, a comprehensive platform of kinase, protease, phosphatase and epigenetic assays that utilizes cutting-edge microfluidics and informatics tools to provide accurate and rapid results. Profiling data in this application were determined using these techniques at Nanosyn Inc. IC50 data were provided by Reaction Biology Inc using a P33 radiolabeled kinase assay.
(§2) More modest activity for Aurora-A, FLT-1/4, KDR, KIT, PDGFRs was accompanied by better activity for B-Raf mutant and wild-type forms, Modest inhibition of MEK-1, BTK, c-Met, RET, and RON was also observed. […] Moreover, the observed inhibition of MEK-1 with 1-12 and TYK2 with I-6 represents additional activities against kinases for which no type-II inhibitors have been reported to date. […] To further evaluate the scope of inhibition, I-6 was evaluated against a larger panel of 230 kinases, Table-22.

Another assay deals with EPH-A8 (Homo sapiens, UniProt P29322). The experiment in a line: Nanosyn kinase profiling, % inhibition. As to conditions: panel of 230 kinases. The procedure:
as §1, §2

A further assay has as its target PAK1 (Homo sapiens, UniProt Q13153). As to the kind of experiment: Nanosyn kinase profiling, % inhibition. As to conditions: panel of 230 kinases. The method, then: as §1, §2
A further assay addresses BLK (Homo sapiens, UniProt P51451). The experiment in a line: Nanosyn kinase profiling, % inhibition. As to conditions: panel of 230 kinases. The procedure: as §1, §2
For a further assay, the target named is FGR (Homo sapiens, UniProt P09769). As to the kind of experiment: Nanosyn kinase profiling, % inhibition. As to conditions: panel of 230 kinases. The procedure: as §1, §2
The target of a further assay is SRC (Homo sapiens, UniProt P12931). The experiment in a line: Nanosyn kinase profiling, % inhibition. As to conditions: panel of 230 kinases. The procedure:
as §1, §2

For the next assay, the target named is LYNB (Homo sapiens, UniProt P07948). As to the kind of experiment: Nanosyn kinase profiling, % inhibition. The conditions noted are these: panel of 230 kinases. The method, then: as §1, §2
The target of the next assay is LYNA (Homo sapiens, UniProt P07948). As to the kind of experiment: Nanosyn kinase profiling, % inhibition. As to conditions: panel of 230 kinases. The method, then: as §1, §2
The next assay concerns the target T1, MKNK1 (Homo sapiens, UniProt Q9BUB5).
T1 construct: literature Ambit Biosciences
As to the kind of experiment: Nanosyn kinase profiling, % inhibition. The conditions noted are these: panel of 230 kinases. The method, then: as §1, §2

Another assay deals with HCK (Homo sapiens, UniProt P08631). The experiment in a line: Nanosyn kinase profiling, % inhibition. The conditions noted are these: panel of 230 kinases. The method, then: as §1, §2
The next assay concerns the target TRKA (Homo sapiens, UniProt P04629). The experiment in a line: Nanosyn kinase profiling, % inhibition. The conditions noted are these: panel of 230 kinases. The procedure: as §1, §2
The target in another assay is PTK5 (Homo sapiens, UniProt P42685). The experiment in a line: Nanosyn kinase profiling, % inhibition. The conditions noted are these: panel of 230 kinases. The procedure:
as §1, §2

For a further assay, the target named is EPH-A3 (Homo sapiens, UniProt P29320). As to the kind of experiment: Nanosyn kinase profiling, % inhibition. The conditions noted are these: panel of 230 kinases. The method, then: as §1, §2
A further assay concerns the target EPH-B1 (Homo sapiens, UniProt P54762). As to the kind of experiment: Nanosyn kinase profiling, % inhibition. As to conditions: panel of 230 kinases. The procedure:
as §1, §2

The target in the next assay is ABL-T315I (Homo sapiens, UniProt P00519, T315I). As to the kind of experiment: Nanosyn kinase profiling, % inhibition. As to conditions: panel of 230 kinases. The method, then:
as §1, §2

The next assay concerns the target MAP4K5 (Homo sapiens, UniProt Q9Y4K4). The experiment in a line: Nanosyn kinase profiling, % inhibition. The conditions noted are these: panel of 230 kinases. The procedure: as §1, §2
In the next assay the target is FER (Homo sapiens, UniProt P16591). The experiment in a line: Nanosyn kinase profiling, % inhibition. As to conditions: panel of 230 kinases. The method, then:
as §1, §2

In the next assay the target is LOK (Homo sapiens, UniProt O94804). The experiment in a line: Nanosyn kinase profiling, % inhibition. As to conditions: panel of 230 kinases. The method, then:
as §1, §2

Another assay concerns the target EPH-B4 (Homo sapiens, UniProt P54760). As to the kind of experiment: Nanosyn kinase profiling, % inhibition. The conditions noted are these: panel of 230 kinases. The method, then: as §1, §2
Another assay has as its target SPHK1 (Homo sapiens, UniProt Q9NYA1). As to the kind of experiment: Nanosyn kinase profiling, % inhibition. The conditions noted are these: panel of 230 kinases. The procedure: as §1, §2
The next assay addresses MER (Homo sapiens, UniProt Q12866). The experiment in a line: Nanosyn kinase profiling, % inhibition. The conditions noted are these: panel of 230 kinases. The method, then:
as §1, §2

Another assay deals with AXL (Homo sapiens, UniProt P30530). As to the kind of experiment: Nanosyn kinase profiling, % inhibition. The conditions noted are these: panel of 230 kinases. The procedure: as §1, §2
The next assay addresses SPHK2 (Homo sapiens, UniProt Q9NRA0). As to the kind of experiment: Nanosyn kinase profiling, % inhibition. The conditions noted are these: panel of 230 kinases. The procedure: as §1, §2
A further assay concerns the target EPH-A5 (Homo sapiens, UniProt P54756). The experiment in a line: Nanosyn kinase profiling, % inhibition. The conditions noted are these: panel of 230 kinases. The procedure:
as §1, §2

The target in another assay is SRMS (Homo sapiens, UniProt Q9H3Y6). The experiment in a line: Nanosyn kinase profiling, % inhibition. As to conditions: panel of 230 kinases. The method, then:
as §1, §2

The target of a further assay is MAP4K2 (Homo sapiens, UniProt Q12851). As to the kind of experiment: Nanosyn kinase profiling, % inhibition. As to conditions: panel of 230 kinases. The procedure: as §1, §2
A further assay addresses T2, TNK1 (Homo sapiens, UniProt Q13470).
T2 construct: purchased Reaction Biology Inc (contract assay)
T2 sequence (Q13470 1-666): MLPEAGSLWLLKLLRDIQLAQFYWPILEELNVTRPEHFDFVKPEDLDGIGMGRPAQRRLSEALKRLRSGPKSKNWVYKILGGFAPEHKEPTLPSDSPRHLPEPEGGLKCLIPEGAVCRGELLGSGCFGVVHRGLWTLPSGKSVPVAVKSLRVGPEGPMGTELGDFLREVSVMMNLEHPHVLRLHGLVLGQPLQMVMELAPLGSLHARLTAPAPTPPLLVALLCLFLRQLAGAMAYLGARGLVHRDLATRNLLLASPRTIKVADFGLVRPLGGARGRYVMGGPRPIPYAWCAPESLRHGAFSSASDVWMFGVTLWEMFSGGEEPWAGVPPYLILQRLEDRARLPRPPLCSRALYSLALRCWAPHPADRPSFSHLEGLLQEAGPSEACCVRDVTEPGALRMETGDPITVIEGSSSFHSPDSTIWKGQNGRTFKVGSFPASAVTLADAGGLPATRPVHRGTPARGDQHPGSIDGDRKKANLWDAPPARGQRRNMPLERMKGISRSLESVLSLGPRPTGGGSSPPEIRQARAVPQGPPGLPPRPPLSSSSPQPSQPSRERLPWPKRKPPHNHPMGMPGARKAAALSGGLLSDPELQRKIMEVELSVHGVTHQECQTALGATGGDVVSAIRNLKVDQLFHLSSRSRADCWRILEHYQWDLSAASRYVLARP
The experiment in a line: Reaction Biology P33 radiolabeled kinase assay, IC50 and time dependence. The conditions noted are these: for IC50: ATP 10 uM, read-out: Compound IC50* TNK1. The method, then: as §1
The observation of potency and isoform selectivity with time-dependency for PI3K-γ appears to be unprecedented in the literature. In addition, these activities combined with inhibition of p38-α, Raf-1, DDR and CSF-1R, would be complimentary and potentially synergistic activities for both the treatment of certain inflammation based conditions and cancers.

BLK, sequence (P51451 whole entry): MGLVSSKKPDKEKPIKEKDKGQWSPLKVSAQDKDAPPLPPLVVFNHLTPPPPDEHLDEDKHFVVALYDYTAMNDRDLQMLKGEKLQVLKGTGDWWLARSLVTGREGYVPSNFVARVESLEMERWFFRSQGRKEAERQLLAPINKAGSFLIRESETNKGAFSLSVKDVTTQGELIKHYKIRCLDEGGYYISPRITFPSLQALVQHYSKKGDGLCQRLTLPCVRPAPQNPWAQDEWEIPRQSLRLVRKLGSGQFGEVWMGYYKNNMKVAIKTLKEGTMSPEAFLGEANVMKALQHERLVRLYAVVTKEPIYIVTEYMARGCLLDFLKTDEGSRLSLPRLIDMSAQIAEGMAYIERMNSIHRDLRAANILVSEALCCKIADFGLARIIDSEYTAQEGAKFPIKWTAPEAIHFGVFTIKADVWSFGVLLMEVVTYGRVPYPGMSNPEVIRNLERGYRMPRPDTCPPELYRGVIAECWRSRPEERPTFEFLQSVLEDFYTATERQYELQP
EPH-B1, sequence (P54762 18-984): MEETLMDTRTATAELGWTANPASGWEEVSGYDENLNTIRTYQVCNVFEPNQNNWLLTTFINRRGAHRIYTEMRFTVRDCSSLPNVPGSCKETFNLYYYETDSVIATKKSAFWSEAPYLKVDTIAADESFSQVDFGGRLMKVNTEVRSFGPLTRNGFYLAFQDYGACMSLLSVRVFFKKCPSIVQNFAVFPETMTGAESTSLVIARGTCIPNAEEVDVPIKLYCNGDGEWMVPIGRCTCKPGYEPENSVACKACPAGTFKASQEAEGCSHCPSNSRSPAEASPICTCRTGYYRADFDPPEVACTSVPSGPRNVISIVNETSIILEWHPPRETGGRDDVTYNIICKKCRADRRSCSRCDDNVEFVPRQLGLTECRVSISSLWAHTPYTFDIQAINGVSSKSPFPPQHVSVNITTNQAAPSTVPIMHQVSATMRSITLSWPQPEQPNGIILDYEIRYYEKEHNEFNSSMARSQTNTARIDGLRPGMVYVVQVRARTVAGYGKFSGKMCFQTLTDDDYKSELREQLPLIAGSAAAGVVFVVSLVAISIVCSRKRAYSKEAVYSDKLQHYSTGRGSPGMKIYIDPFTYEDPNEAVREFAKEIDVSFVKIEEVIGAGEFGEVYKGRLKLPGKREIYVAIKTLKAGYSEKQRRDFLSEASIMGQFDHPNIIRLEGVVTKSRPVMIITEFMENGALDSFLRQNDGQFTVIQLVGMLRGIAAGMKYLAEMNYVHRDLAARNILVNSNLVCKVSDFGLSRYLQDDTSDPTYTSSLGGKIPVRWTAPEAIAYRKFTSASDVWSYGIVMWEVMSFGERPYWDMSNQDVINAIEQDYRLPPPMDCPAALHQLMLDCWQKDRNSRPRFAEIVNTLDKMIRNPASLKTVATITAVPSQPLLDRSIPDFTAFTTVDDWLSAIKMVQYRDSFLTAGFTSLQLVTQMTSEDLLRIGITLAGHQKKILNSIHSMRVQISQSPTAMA
LOK, sequence (O94804 whole entry): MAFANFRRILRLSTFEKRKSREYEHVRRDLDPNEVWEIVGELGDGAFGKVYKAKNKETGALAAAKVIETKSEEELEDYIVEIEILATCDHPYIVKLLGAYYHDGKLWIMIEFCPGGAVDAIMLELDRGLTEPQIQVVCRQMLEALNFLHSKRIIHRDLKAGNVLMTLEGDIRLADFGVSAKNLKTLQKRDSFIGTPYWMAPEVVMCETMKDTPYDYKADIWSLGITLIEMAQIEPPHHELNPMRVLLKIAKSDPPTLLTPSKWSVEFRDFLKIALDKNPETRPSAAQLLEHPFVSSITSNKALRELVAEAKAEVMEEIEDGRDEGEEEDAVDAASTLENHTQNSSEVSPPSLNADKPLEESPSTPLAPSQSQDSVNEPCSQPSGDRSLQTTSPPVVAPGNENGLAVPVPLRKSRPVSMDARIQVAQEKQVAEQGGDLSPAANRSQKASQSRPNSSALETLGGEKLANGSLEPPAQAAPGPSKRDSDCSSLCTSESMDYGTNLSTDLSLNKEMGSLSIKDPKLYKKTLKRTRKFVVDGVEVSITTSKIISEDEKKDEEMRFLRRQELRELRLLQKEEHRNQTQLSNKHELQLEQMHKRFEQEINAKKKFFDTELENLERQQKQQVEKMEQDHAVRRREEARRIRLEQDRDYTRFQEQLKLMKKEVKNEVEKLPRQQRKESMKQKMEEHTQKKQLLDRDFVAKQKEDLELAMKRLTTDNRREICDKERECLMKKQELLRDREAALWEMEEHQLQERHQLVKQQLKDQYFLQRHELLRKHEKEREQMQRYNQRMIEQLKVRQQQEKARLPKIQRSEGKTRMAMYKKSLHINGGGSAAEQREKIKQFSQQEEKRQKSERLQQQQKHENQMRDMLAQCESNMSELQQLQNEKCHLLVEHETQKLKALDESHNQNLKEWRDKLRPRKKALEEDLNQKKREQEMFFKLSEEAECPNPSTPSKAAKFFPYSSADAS
EPH-A3, sequence (P29320 21-983): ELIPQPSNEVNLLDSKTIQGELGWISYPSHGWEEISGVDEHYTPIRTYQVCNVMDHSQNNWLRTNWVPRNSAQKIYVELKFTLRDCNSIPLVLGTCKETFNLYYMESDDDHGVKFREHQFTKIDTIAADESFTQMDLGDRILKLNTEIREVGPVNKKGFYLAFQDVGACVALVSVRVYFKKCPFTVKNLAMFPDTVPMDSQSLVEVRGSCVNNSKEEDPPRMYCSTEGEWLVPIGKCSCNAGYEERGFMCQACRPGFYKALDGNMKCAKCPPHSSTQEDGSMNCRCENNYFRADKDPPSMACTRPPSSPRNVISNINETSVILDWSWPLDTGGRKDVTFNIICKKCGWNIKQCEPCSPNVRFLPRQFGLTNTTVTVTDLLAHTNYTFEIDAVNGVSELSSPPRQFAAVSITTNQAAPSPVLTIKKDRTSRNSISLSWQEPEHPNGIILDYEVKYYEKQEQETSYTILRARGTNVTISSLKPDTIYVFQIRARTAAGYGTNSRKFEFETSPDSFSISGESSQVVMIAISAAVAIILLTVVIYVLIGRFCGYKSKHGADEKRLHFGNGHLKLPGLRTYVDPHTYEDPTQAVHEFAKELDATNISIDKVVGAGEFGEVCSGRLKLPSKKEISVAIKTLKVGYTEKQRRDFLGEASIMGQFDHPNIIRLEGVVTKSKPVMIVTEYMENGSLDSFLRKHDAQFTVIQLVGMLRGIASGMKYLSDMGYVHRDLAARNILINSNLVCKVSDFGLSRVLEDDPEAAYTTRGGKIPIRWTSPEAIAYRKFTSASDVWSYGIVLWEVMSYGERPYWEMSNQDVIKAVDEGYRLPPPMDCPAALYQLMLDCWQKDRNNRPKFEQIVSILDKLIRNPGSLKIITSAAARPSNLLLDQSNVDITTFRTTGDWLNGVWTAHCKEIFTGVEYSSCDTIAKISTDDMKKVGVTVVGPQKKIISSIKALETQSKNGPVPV
TRKB, sequence (Q16620 32-822): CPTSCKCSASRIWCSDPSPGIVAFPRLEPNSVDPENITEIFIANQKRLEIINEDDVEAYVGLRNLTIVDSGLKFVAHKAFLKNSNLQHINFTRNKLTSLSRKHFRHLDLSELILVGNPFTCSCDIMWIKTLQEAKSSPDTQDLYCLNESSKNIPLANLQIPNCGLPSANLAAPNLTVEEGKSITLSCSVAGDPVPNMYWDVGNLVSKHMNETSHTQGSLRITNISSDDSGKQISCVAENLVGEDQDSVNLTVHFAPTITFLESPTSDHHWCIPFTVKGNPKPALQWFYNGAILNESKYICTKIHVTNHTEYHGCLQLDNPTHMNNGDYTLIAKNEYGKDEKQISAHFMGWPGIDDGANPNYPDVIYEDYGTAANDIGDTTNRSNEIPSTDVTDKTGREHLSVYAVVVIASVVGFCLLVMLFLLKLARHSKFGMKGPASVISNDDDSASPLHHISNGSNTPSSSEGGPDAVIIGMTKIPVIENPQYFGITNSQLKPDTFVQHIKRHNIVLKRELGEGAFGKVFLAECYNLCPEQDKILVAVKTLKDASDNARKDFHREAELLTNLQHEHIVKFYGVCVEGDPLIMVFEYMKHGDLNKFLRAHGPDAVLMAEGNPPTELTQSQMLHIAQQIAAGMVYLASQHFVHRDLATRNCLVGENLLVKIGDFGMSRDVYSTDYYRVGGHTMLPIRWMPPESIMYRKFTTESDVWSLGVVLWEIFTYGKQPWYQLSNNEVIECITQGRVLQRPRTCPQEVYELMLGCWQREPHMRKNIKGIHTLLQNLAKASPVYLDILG
TRKA, sequence (P04629 33-796): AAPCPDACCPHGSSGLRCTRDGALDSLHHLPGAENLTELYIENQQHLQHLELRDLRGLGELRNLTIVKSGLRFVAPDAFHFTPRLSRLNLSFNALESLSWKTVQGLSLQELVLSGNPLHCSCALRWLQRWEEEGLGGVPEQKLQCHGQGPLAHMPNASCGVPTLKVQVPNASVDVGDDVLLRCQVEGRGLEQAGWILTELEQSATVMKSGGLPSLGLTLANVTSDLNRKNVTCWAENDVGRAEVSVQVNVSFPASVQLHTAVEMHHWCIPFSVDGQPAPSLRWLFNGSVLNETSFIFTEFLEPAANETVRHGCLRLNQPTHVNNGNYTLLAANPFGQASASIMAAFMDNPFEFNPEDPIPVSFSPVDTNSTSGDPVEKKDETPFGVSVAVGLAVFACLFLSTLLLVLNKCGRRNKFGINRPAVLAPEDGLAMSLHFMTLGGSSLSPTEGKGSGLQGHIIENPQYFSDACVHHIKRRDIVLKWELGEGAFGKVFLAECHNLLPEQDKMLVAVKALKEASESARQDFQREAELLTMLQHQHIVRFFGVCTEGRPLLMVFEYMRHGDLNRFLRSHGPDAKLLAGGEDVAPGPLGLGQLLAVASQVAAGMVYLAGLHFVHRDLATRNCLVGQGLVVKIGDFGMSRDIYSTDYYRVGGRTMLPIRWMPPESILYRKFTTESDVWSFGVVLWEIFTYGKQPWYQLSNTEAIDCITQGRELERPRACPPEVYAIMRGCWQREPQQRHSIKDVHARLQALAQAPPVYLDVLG

The term inhibition denotes the drop in the measured response relative to a control, in per cent. With `CNC(=O)c1cc(Oc2ccc(NC(=O)c3nc(C(F)(F)F)[nH]c3-c3ccc(F)cc3)cc2)ccn1` [Inhibitor I-6, 4-(4-{[5-(4-Fluoro-phenyl)-2-trifluoromethyl-3H-imidazole-4-carbonyl]-amino}-phenoxy)-pyridine-2-carboxylic acid methylamide], the inhibition at 5 µM at TRKB, on EPH-A8, against PAK1, against BLK, at FGR and against SRC was not below 50% each time. In addition, the inhibition at 5 µM on LYNB, on LYNA, at MKNK1, at HCK, against TRKA and against PTK5 was not below 50% each time. Also, the inhibition at 5 µM against EPH-A3, against EPH-B1, against ABL-T315I, against MAP4K5, against FER and against LOK was not below 50% throughout. Besides, the inhibition at 5 µM against EPH-B4, at SPHK1, at MER, at AXL, at SPHK2 and against EPH-A5 was not below 50% in each case. In addition, the inhibition at 5 µM against SRMS and against MAP4K2 was not below 50% throughout.
The IC50 is the concentration that gives 50% inhibition. For the compound `Cc1ccc(NC(=O)c2nc(S(C)(=O)=O)[nH]c2-c2ccc(F)cc2)cc1Nc1nccc(-c2cccnc2)n1` [Inhibitor I-14, 3-(4-(pyridin-3-yl)-pyrimidinyl-2-yl)amino-4-methyl-analine, 5-(4-Fluorophenyl)-2-(methylsulfonyl)-1H-imidazole-4-carboxamide], the “Time Dependence Observed? TNK1” value on TNK1 (15 vs 60 Min preincubation) is reported as “No”. The 50% inhibitory concentration (IC50) at TNK1 (preincubation 15 Min) was determined as 210 nM; on TNK1 (preincubation 60 Min), 241 nM.
